Data set [1] is described as follows: Fraction of unchanged radioligand in arterial plasma (radiometabolite analysis). The settings on record: 30 min after injection. In kind it is in vivo, Macaca fascicularis. Here is the method:
(§1) At start of PET data acquisition, a sterile physiological phosphate buffer solution (pH = 7.4) of [^18F]GEH200449 (injected radioactivity, 107–167 MBq) was injected as a bolus into a sural vein. Emission data were acquired in list mode for 123 min. Arterial blood was sampled as previously described[28] using an automated blood sampling system (ABSS) during the first 3 min of each PET measurement. Subsequently, arterial blood samples (0.7–2.5 mL) were manually drawn at 7, 15, 30, 60, 90, and 120 min after injection of [^18F]GEH200449. After centrifugation, 0.15–1.0 mL of plasma was pipetted and plasma radioactivity was measured in a well counter. In addition, samples were taken directly from the ABSS at 0.5, 1, 1.5, 2, 2.5, and 3 min for cross-calibration with the well counter and for the determination of the plasma-to-blood ratio.
The fraction of plasma radioactivity corresponding to the unchanged radioligand in plasma was determined from arterial plasma samples collected at 2, 7, 15, 30, 60, 90, and 120 min after injection of [^18F]GEH200449 according to previously described procedures.[29]

A short description of data set [2]: PET whole-brain radioactivity (brain exposure) at baseline. The data set is classed as in vivo, Macaca fascicularis. To be noted: for whole-brain radioactivity, maximum concentration: IV injection. The procedure: Two male and three female NHPs (#1–5) of the species M. fascicularis, weighing 4.2–8.8 kg, were supplied by the Astrid Fagraeus Laboratory, Karolinska Institutet, Solna, Sweden. Anesthesia was initiated by intramuscular injection of ketamine hydrochloride (ca. 10 mg/kg, Ketalar, Pfizer) and maintained by intravenous infusion of a mixture of ketamine hydrochloride (4 mg/kg/h) and xylazine hydrochloride (0.4 mg/kg/h Rompun Vet., Bayer).
PET measurements were conducted using the high-resolution research tomograph system (Siemens Molecular Imaging, Knoxville, TN, USA) for NHPs #1–4 and using the LFER 150 PET/CT system (Mediso Ltd., Budapest, Hungary) for NHP #5.
as §1
Dynamic images were reconstructed as previously described.[30],[31] Regions of interest (ROIs) for the whole brain and selected regions (caudate nucleus, putamen, thalamus, occipital cortex, prefrontal cortex, and cerebellum) were manually delineated on T1-weighted magnetic resonance images (MRIs) acquired as previously described.[21],[27] PET images were coregistered to the MRIs, and time-activity curves were generated by pooling ROIs for each paired anatomical region and applying the pooled ROIs to the coregistered PET images. […]

With `O=c1ccoc2ccc(OCc3ccc([18F])nc3)cc12` [[^18F]GEH200449], the “parent radioligand remaining unchanged in plasma” value in data set [1] is reported as 5–28%. Moreover, the “whole-brain radioactivity, maximum concentration” value in data set [2] is on record as 4.0–6.4 %ID; in data set [2] (n = 5 NHPs), 3.4–5.2 SUV. The “time to maximum whole-brain radioactivity concentration” value in data set [2] (after IV injection) was 1.8 to 7.5 min.

The values above are taken from article PMC10485887, “PET Evaluation of the Novel F-18 Labeled Reversible Radioligand [^18F]GEH200449 for Detection of Monoamine Oxidase-B in the Non-Human Primate Brain” (ACS Chemical Neuroscience, 2023).
